Test results as given in US20210205253A1, “Use Of Stearic Acid For Preventing Or Treating Pulmonary Fibrosis” (THE ASAN FOUNDATION, priority 2018, published 2021).

Key:
[1] = system: primary fibroblasts isolated from lung tissues of patients with idiopathic pulmonary fibrosis; assay: Collagen 1 and α-SMA expression in primary fibroblasts from IPF patients; assay type: cell-based, human; conditions: 80 μM stearic acid
Method: In addition to the results in the Examples, the present inventors sought to verify the anti-fibrotic effect of stearic acid on fibroblasts derived from lung tissues in patients with idiopathic pulmonary fibrosis (IPF). For this purpose, after primary fibroblasts were isolated from lung tissues of the patients, and then the cells were treated with stearic acid at various concentrations for 24 hours, the expression levels of collagen 1 and α-SMA were measured (FIGS. 10A and 10B), fibroblasts obtained from 4 patients were treated with 80 μM stearic acid for 24 hours, and then the expression levels of collagen 1 and α-SMA were measured (FIG. 10C). In addition, after the expression of collagen type 1 and α-SMA was increased by inducing the fibrosis caused by TGF-β1 in patient-derived fibroblasts, the anti-fibrotic effect of stearic acid was verified (FIGS. 10D and 10E).

[2] = system: Beas-2B human pulmonary epithelial cell line; assay: E-cadherin expression in epithelial cells; assay type: cell-based; conditions: 40 μM stearic acid, 24 h
Method: The present inventors examined the expression level of E-cadherin after treating Beas-2B, which is a human pulmonary epithelial cell line, with TGF-β1 and/or 40 μM stearic acid for 24 hours in order to examine the effects of stearic acid on epithelial cells. As a result, as illustrated in FIGS. 11A and 11B, it was confirmed that when Beas-2B was treated with 40 μM stearic acid, the expression of E-cadherin reduced by TGF-β1 was restored in Beas-2B cells. […] It was confirmed in FIG. 3B that when epithelial cells are treated with TGF-β1, the proliferation of epithelial cells was inhibited and the proliferation of epithelial cells was restored by stearic acid.

[3] = system: human pulmonary epithelial cells (BEAS-2B); assay: Cell viability (MTT) of human pulmonary epithelial cells; assay type: cell-based; conditions: stearic acid 40 uM/mL + TGF-β 5 ng/mL, 24 h, versus TGF-β alone
Method: (§1) After epithelial cells and fibroblasts were aliquoted into 6-well plates at 2×10^4 cells/well and a stabilization time was imparted for 24 hours, and 15 hours after deficiency, cells were treated with stearic acid (40 uM/mL), TGF-β (5 ng/mL), and stearic acid (40 uM/mL)+TGF-β (5 ng/mL) in this order. After the cells were cultured in an incubator for 24 hours after the treatment, the next-step experiment was performed.
(§2) After a 24-hour cell stimulation by the method in Example 1-3 was completed, the medium of epithelial cells and fibroblasts was replaced with a general culture medium, 10 μl of an MTT solution (20 mg/ml) was further added, and then the outside of the plate was wrapped with aluminum foil and cells were cultured in an incubator for 2 hours. […] After 2 hours, cell activation was measured at an absorbance value of 595 nm using an ELISA reader.
(§3) For this purpose, after each culture (BEGM(Lonza) in the case of MRC-5, and BMEM (ATCC) in the case of BEAS-2B) of human pulmonary fibroblasts (MRC-5; ATCC® CCL171™) and human pulmonary epithelial cells (BEAS-2B; ATCC® CRL9609™) was treated with stearic acid (40 uM/mL), TGF-β (5 ng/mL; Sigma), or stearic acid (40 uM/mL)+TGF-β (5 ng/mL) by the method described in Example 1-3 for 24 hours, cell viability was measured by the method in Example 1-4. […]

[4] = system: pulmonary fibrosis induced by bleomycin; assay: Combined stearic acid and pirfenidone in bleomycin pulmonary fibrosis animal model; assay type: in vivo, mice (C57BL/6J); conditions: 3 mg/kg stearic acid, 300 mg/kg pirfenidone oral once every 2 days for 2 weeks; versus bleomycin group
Method: In addition to the results of the above examples, the present inventors sought to confirm the anti-fibrotic effect by the combined treatment of stearic acid and pirfenidone in a pulmonary fibrosis animal model. For this purpose, 8-week-old mice (C57BL/6J) were anesthetized with 50 mg/kg […] and 5 mg/kg Rompun, followed by injection of bleomycin and saline into the trachea. From 7 days after administration of bleomycin, 3 mg/kg stearic acid, 300 mg/kg pirfenidone or the two drugs were orally administered at the same time once every 2 days for 2 weeks, and changes in mouse body weight were measured up to 21 days after administration of bleomycin.

[5] = system: human pulmonary fibroblasts (MRC-5); assay: Cell viability (MTT) of human pulmonary fibroblasts; assay type: cell-based; conditions: stearic acid 40 uM/mL + TGF-β 5 ng/mL, 24 h, versus TGF-β alone
Method: as §1, §2, §3

[6] = system: reactive oxygen species in MRC-5 cells; assay: ROS measurement (DCF-DA, FACS); assay type: cell-based, human; conditions: 40 μM stearic acid pre-treatment 16 h, TGF-β1 1 h
Method: The present inventors pre-treated a human pulmonary fibroblast cell line MRC-5 with 40 μM stearic acid for 16 hours, treated the MRC-5 cells with TGF-β1 for 1 hour, and then examined the expression levels of p-Smad2/3 and Smad7 in order to elucidate the anti-fibrotic mechanism of stearic acid in human pulmonary fibroblasts (FIGS. 12A and 12B). Further, to investigate the effect of stearic acid on the production of reactive oxygen species (ROS), MRC-5 cells were pre-treated with 40 μM stearic acid for 16 hours, and cells treated with TGF-β1 for 1 hour were stained with DCF-DA and analyzed by FACS (FIG. 12C). Furthermore, MRC-5 cells were pre-treated with 5 mM N-acetylcysteine (NAC), which is an antioxidant, for 1 hour and treated with TGF-β1 for 1 hour, and then the expression of p-Smad2/3 was examined (FIG. 12D).

[7] = primary fibroblasts from 4 patients with IPF, 24 h (FIG. 10C)

**Q.** What does the source list for `CCCCCCCCCCCCCCCCCC(=O)O` [stearic acid]?
**A.** basal level expression of collagen 1 ([1]; 24 h (FIGS. 10A, 10B)): significantly reduced; basal level expression of α-SMA ([1]; 24 h (FIGS. 10A, 10B)): significantly reduced; expression of collagen 1 ([1]; fibrosis induced by TGF-β1): significantly reduced; expression of α-SMA ([1]; fibrosis induced by TGF-β1): significantly reduced; basal level expression of collagen 1 [1, 7]: significantly reduced; basal level expression of α-SMA [1, 7]: significantly reduced; expression of E-cadherin reduced by TGF-β1 [2]: restored; cell viability of pulmonary epithelial cells [3]: cell viability increased; level of hydroxyproline [4]: partially reduced; cell viability of pulmonary fibroblasts [5]: cell viability decreased; level of reactive oxygen species induced by TGF-β1 [6]: remarkably reduced
